In paper PMC4959829 (Biochemical Pharmacology, 2016):
Like-named read-outs stand apart in the source and are kept apart here.

Key:
hERG (WT) [1] = conditions: cited from earlier work
hERG (WT) [2] = conditions: cited from earlier work; remark: listed apart in the source
hERG (WT) [3] = test: Literature IhERG block, WT hERG in Xenopus oocytes; format: cell-based; conditions: human, Xenopus oocytes expressing WT hERG; Oocyte, room temperature; estimated from single dose data with Hill equation, h = 1; read-out: WT IC50 (estimated)
Y652A hERG = Y652A hERG (Homo sapiens, UniProt Q12809, Y652A); conditions: cited from earlier work
Y652A hERG, sequence (Q12809 whole entry Y652A): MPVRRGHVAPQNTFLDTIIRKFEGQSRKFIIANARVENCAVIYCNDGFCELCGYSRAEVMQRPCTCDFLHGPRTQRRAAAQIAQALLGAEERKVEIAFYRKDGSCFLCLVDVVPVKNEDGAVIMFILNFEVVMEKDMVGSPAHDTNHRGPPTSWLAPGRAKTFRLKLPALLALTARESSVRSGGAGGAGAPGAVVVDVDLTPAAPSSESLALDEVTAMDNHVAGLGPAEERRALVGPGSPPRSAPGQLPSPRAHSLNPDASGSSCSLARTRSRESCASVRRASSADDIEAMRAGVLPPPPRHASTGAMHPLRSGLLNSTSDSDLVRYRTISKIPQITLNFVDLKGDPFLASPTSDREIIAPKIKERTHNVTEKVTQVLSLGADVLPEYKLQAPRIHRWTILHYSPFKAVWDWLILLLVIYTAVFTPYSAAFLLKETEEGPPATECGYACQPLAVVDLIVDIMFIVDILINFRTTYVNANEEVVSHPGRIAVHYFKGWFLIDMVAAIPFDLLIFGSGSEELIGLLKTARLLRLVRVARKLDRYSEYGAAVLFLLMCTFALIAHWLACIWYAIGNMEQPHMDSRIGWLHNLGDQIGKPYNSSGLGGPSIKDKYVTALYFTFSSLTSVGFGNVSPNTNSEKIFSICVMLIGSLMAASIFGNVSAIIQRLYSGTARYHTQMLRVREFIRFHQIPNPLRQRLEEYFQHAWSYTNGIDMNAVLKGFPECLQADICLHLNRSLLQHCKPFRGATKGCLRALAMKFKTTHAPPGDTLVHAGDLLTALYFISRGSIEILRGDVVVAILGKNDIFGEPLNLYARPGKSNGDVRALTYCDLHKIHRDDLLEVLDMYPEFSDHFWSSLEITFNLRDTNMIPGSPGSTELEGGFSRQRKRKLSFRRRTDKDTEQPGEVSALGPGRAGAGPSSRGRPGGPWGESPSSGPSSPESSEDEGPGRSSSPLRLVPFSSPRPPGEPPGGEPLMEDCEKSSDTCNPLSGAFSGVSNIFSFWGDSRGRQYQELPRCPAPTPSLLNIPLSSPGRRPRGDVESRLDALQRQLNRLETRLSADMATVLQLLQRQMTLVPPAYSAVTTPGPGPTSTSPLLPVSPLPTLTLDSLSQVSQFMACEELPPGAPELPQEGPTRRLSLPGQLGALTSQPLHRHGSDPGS

F656A hERG = F656A hERG (Homo sapiens, UniProt Q12809, F656A); conditions: cited from earlier work
F656A hERG, sequence (Q12809 whole entry F656A): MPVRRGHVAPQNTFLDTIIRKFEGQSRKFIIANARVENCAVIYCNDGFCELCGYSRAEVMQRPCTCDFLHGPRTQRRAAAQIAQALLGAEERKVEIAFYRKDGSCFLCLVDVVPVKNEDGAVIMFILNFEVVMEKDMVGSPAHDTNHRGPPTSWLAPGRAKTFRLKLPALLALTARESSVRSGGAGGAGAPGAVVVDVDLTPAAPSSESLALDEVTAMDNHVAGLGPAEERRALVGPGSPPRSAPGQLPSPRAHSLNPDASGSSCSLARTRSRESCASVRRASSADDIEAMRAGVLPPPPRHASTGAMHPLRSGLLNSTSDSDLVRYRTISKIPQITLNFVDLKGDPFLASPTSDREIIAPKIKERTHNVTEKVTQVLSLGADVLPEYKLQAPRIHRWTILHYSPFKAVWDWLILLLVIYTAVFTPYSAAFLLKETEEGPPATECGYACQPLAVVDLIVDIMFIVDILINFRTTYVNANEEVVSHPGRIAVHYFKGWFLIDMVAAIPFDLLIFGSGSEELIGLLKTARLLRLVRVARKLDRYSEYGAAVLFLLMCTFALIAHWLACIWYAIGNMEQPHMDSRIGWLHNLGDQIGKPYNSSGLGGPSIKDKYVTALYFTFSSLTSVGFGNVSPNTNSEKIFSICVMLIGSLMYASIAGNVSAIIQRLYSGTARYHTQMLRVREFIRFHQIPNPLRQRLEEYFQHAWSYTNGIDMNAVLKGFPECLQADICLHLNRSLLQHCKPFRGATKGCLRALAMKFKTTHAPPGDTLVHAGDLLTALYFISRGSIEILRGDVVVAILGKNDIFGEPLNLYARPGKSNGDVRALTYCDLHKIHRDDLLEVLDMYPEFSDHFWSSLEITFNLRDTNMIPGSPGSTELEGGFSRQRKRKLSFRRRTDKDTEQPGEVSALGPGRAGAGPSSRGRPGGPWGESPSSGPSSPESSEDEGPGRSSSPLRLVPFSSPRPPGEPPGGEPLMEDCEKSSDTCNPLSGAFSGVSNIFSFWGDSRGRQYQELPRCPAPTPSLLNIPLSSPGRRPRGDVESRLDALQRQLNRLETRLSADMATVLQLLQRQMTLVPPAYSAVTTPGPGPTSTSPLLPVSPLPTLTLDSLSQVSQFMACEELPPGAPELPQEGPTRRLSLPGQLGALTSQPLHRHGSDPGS

[4] = read-out: WT IC50, Oocyte, room temperature

For `CCCCc1oc2ccccc2c1C(=O)c1cc(I)c(OCCNCC)c(I)c1` [desethyl-amiodarone], the IC50 (hERG (WT) [2]; metabolite DEA, read-out: IhERG IC50) is listed as ~0.16 µM.
In the case of `CCCCCCC[N+](CC)(CC)CCCCc1ccc(Cl)cc1` [Clofilium], the IC50 (hERG (WT) [1]; [4]) is given as 0.03 µM.
In the case of `O=C1Cc2cc(CCN3CCN(c4nsc5ccccc45)CC3)c(Cl)cc2N1` [Ziprasidone], the IC50 (hERG (WT) [1]) is given as 2.8 µM, the “IC50 fold increase (mutant IC50/WT IC50), Y652A” value (Y652A hERG) is given as 140 fold and the “IC50 fold increase (mutant IC50/WT IC50), F656A” value (F656A hERG) is given as 357 fold. The IC50 (hERG (WT) [2]; HEK293, 37 °C, read-out: WT IC50) was 0.12 µM.
